Reference: US9206198B2, “Inhibitors of the renal outer medullary potassium channel” (Merck Sharp & Dohme Corp., priority 2012, dated 2015)

These compounds were tested against hROMK (hKir1.1) (Homo sapiens (Human), UniProt P48048) (assay: Thallium Flux Assay (ROMK channel functional thallium flux assay, FLIPR-Tetra)). Settings: HEK293 cells stably expressing hROMK.
Type: cell-based
Procedure: Cell Culture Conditions— HEK293 cells stably expressing hROMK (hKir1.1) were grown at 37° C. in a 10% CO2 humidified incubator in complete growth media: Dulbecco's Modified Eagle Medium supplemented with non-essential amino acids, Penicillin/Streptomycin/Glutamine, G418 and FBS. At >80% confluency, aspirate the media from the flask and rinse with 10 mL Calcium/Magnesium-free PBS. Add 5 mL of 1× trypsin (prepared in Ca/Mg Free PBS) to T-225 flask and return flask to 37° C./CO2 incubator for 2-3 minutes. To dislodge the cell, gently bang the side of the flask with your hand. Triturate the cells completely and then transfer the cells to 25 mL complete media. Centrifuge at 1,500 rpm for 6 min followed by resuspension in complete growth media and determine cell concentration. For typical re-seeding, 4E6 cells/T-225 flask will attain >80% confluency in 4 days. Under ideal growth conditions and appropriate tissue culture practices, this cell line is stable for 40-45 passages.
FluxOR Kit Components (Invitrogen F10017)
• FluxOR™ Reagent (Component A) • FluxOR™ Assay Buffer (Component B)—10× Concentrate • PowerLoad™ Concentrate (Component C)—100× Concentrate • Probenecid (Component D)—Lyophilized sample is kept at −20° C. Water soluble, 100×after solubilization in 1 mL water. Store at 4° C. • FluxOR™ Chloride-free Buffer (Component E)—5× Concentrate • Potassium sulfate (K2SO4) Concentrate (Component F)—125 mM in water. Store at 4° C. • Thallium sulfate (Tl2SO4) Concentrate (Component G)—50 mM in water. Store at 4° C. • DMSO (dimethyl sulfoxide, Component H)—1 mL (100%) Reagent Preparation: FluxOR Working Solutions • 1000× FluxOR™ Reagent: Reconstitute a vial of component A in 100 μl DMSO; Mix well; Store 10 μl aliquots at −20° C. • 1× FluxOR™ Assay Buffer: Dilute Component B 10-fold with water; Adjust pH to 7.4 with Hepes/NaOH; Filter and store at 4° C. • Probenecid/Assay Buffer: 100 mL of 1× FluxOR™ Assay Buffer; 1 mL of reconstituted component D; Store at 4° C. • Loading Buffer (per microplate): 10 μl 1000× FluxOR™ Reagent; 100 μl component C; 10 mL Probenecid/Assay Buffer • Compound Buffer (per microplate): 20 mL Probenecid/Assay Buffer; 0.3 mM ouabain (10 mM ouabain in water can be stored in amber bottle/aluminum foil at room temperature); Test compound • 1× FluxOR™ Chloride-Free Buffer: Prepare 1× working solution in water. Can be stored at room temperature • Stimulant Buffer (prepared at 5× final concentration in 1× FluxOR™ Chloride-Free Buffer): 7.5 mM Thallium sulfate and 0.75 mM Potassium sulfate (to give a final assay concentration of 3 mM Thallium 0.3 mM Potassium). Store at 4° C. when not in use. If kept sterile, this solution is good for months.
Assay Protocol—The ROMK channel functional thallium flux assay is performed in 384 wells, using the FLIPR-Tetra instrument. HEK-hKir1.1 cells are seeded in Poly-D-Lysine microplates and kept in a 37° C.-10% CO2 incubator overnight. On the day of the experiment, the growth media is replaced with the FluxOR™ reagent loading buffer and incubated, protected from light, at ambient temperature (23-25° C.) for 90 min. The loading buffer is replaced with assay buffer±test compound followed by 30 min incubation at ambient temperature, where the Thallium/Potassium stimulant is added to the microplate.
• 1. Seed HEK-hKir1.1 cells ([…] at 20,000 cells/well) in 384-well PDL coated Microplates • 2. Allow cells to adhere overnight in humidified 37° C./10% CO2 incubator • 3. Completely remove cell growth media from microplate and replace with 25 μl loading buffer • 4. Incubate Microplate at room temperature, protected form light, for 90 min • 5. Remove loading buffer and replace with 25 μl 1× Assay Buffer±test compound. • 6. Incubate microplate at room temperature, protected from light, for 30 min • 7. At FLIPR-Tetra 384: Add stimulant (Thallium/Potassium) solution to microplate and monitor fluorescence. Excitation=400 nm, Emission=460 & 580 nm. Collect data for 10 min.

hROMK (hKir1.1), sequence (P48048 whole entry): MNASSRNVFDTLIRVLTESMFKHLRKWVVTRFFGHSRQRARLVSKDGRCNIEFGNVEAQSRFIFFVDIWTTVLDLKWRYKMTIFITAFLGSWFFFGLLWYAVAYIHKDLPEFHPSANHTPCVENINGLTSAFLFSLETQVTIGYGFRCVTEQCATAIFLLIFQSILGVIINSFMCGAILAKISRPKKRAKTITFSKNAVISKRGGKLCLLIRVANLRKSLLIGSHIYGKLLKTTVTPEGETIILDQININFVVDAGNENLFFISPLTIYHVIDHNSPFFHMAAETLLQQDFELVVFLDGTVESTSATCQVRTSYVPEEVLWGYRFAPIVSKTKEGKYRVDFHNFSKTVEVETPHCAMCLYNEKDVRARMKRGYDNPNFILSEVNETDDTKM

| Structure (SMILES) | IC50 [nM] |
| --- | --- |
| CC1=C(N2C(=O)C3(CCN(C[C@H](O)c4ccc5c(c4C)COC5=O)CC3)CC2C2CC2)COC1=O (stereo partly shown) [Example 70] | 340 |
| CC1=C(N2CCC3(CCN(CC(NCCC#N)c4ccc5c(c4C)COC5=O)CC3)C2=O)COC1=O (stereo not shown) [Example 59] | 210 |
| CCC1CC2(CCN(C[C@H](O)c3ccc4c(c3C)COC4=O)CC2)C(=O)N1C1=CC(=O)OC1 (single isomer, unassigned) [Example 67] | 20 |
| CO[C@@H](CN1CCC2(CC1)C[C@H](C)N(C1=CC(=O)OC1)C2=O)c1ccc2c(c1C)COC2=O [Example 2] | 50 |
| CC1=C(N2CCC3(CCN(C(C)(C)C(O)c4ccc5c(c4C)COC5=O)CC3)C2=O)COC1=O (single isomer, unassigned) [Example 85A] | 120 |
| Cc1c([C@@H](O)CN2CCC3(CC2)CCN(C2=C(C4CC4)C(=O)OC2)C3=O)ccc2c1COC2=O [Example 31] | 40 |
| CC1=CN(C2=C(C)C(=O)OC2)C(=O)C12CCN(C[C@H](O)c1ccc3c(c1C)COC3=O)CC2 [Example 73] | 80 |
| CC1=C(N2CCC3(CCN(C(CO)Cc4ccc5c(c4C)COC5=O)CC3)C2=O)COC1 (single isomer, unassigned) [Example 84B] | 70 |
| COCCNC(CN1CCC2(CC1)CCN(C1=C(C)C(=O)OC1)C2=O)c1ccc2c(c1C)COC2=O (stereo not shown) [Example 58] | 220 |
| Cc1c([C@@H](O)CN2CCC3(CC2)C(=O)N(C2=CC(=O)OC2)c2ccccc23)ccc2c1COC2=O [Example 65, 1′-[(2R)-2-hydroxy-2-(4-methyl-1-oxo-1,3-dihydro-2-benzofuran-5-yl)ethyl]-2-oxo-1-(5-oxo-2,5-dihydrofuran-3-yl)-1,2-dihydrospiro[indole-3,4′-piperidinium]] | 40 |
| CC1=C(N2CCC3(CCN(CC(O)c4ccc5c(c4C4CC4)COC5=O)CC3)C2=O)COC1=O (single isomer, unassigned) [Example 77] | 240 |
| Cc1c([C@@H](O)CN2C3CCC2CC2(CC(C)N(C4=CC(=O)OC4)C2=O)C3)ccc2c1COC2=O (stereo partly shown) [Example 39] | 20 |
| CC1=C(N2CC(=O)C3(CCN(C[C@H](O)c4ccc5c(c4C)COC5=O)CC3)C2=O)COC1=O [Example 36] | 30 |
| Cc1c([C@H](O)CN2C3CCC2CC2(CC(C)N(C4=CC(=O)OC4)C2=O)C3)ccc2c1COC2=O (single isomer, unassigned) [Example 42] | 100 |
| CC1=C(N2CCC3(CCN(CC(NCC(F)F)c4ccc5c(c4C)COC5=O)CC3)C2=O)COC1=O (stereo not shown) [Example 55] | 250 |
| CC1=C(N2CCC3(CC4COCC(C3)N4C[C@H](O)c3ccc4c(c3C)COC4=O)C2=O)COC1=O (stereo partly shown) [Example 82] | 180 |
| CC1=C(N2CCC3(CCN(C[C@H](O)c4ccc5c(c4C)COC5=O)CC3O)C2=O)COC1=O (stereo partly shown) [Example 26] | 230 |
| CC1=C(N2CCC3(CC4CN(C)CC(C3)N4C[C@@H](O)c3ccc4c(c3C)COC4=O)C2=O)COC1=O (stereo partly shown) [Example 46] | 140 |
| CC1=C(N2CCC3(CCN(C[C@@H](F)c4ccc5c(c4C)COC5=O)CC3)C2=O)COC1=O [Example 48, 8-[(2S)-2-fluoro-2-(4-methyl-1-oxo-1,3-dihydro-2-benzofuran-5-yl)ethyl]-2-(4-methyl-5-oxo-2,5-dihydrofuran-3-yl)-2,8-diazaspiro[4.5]decan-1-one] | 20 |
| CC1=C(N2CCC3(CCN(CCc4ccc5c(c4C)COC5=O)CC3)C2=O)COC1=O [Example 1, 8-(2-(4-methyl-1-oxo-1,3-dihydroisobenzofuran-5-yl)ethyl)-2-(4-methyl-5-oxo-2,5-dihydrofuran-3-yl)-2,8-diazaspiro[4.5]decan-1-one] | 10 |
| Cc1c([C@H](O)CN2C3CCC2CC2(CC(C)N(C4=CC(=O)OC4)C2=O)C3)ccc2c1COC2=O (stereo partly shown) [Example 41] | 240 |
| CC1=C(N2CCC3(CCN([C@@H](C)[C@H](O)c4ccc5c(c4C)COC5=O)CC3)C2=O)COC1=O [Example 53A] | 10 |
| Cc1c([C@@H](O)CN2CCC3(C=CN(C4=CC(=O)OC4)C3=O)CC2)ccc2c1COC2=O [Example 44] | 40 |
| CC1=C(N2CCC3(CC4CN(C)CC(C3)N4C[C@H](O)c3ccc4c(c3C)COC4=O)C2=O)COC1=O (stereo partly shown) [Example 45] | 160 |

Further compounds by falling IC50, results first:

| IC50 [nM] | Structure (SMILES) |
| --- | --- |
| 370 | CC1=C(N2CCC3(CCN(CC(NC4CCC4)c4ccc5c(c4C)COC5=O)CC3)C2=O)COC1=O (stereo not shown) [Example 56] |
| 270 | CC1=C(N2CCC3(CCN(CC(O)c4ccc5c(c4Cl)COC5=O)CC3)C2=O)COC1=O (single isomer, unassigned) [Example 78] |
| 200 | CCc1c(C(O)CN2CCC3(CC2)CCN(C2=C(C)C(=O)OC2)C3=O)ccc2c1COC2=O (single isomer, unassigned) [Example 74] |
| 190 | CC1=C(N2CCC3(CCN(CC(O)c4ccc5c(c4F)COC5=O)CC3)C2=O)COC1=O (single isomer, unassigned) [Example 81] |
| 150 | CC1=C(N2CCC3(CCN(CC(NC4CC4)c4ccc5c(c4C)COC5=O)CC3)C2=O)COC1=O (stereo not shown) [Example 54, 8-(2-(cyclopropylamino)-2-(4-methyl-1-oxo-1,3-dihydroisobenzofuran-5-yl)ethyl)-2-(4-methyl-5-oxo-2,5-dihydrofuran-3-yl)-2,8-diazaspiro[4.5]decan-1-one] |
| 70 | COCC1=C(N2CCC3(CCN(C[C@H](O)c4ccc5c(c4C)COC5=O)CC3)C2=O)COC1=O [Example 71] |
| 60 | CC1=C(N2CCC3(CCN(C(CO)Cc4ccc5c(c4C)COC5=O)CC3)C2=O)COC1 (single isomer, unassigned) [Example 84A] |
| 40 | CC1=C(N2CCC3(CCN(C[C@H](F)c4ccc5c(c4C)COC5=O)CC3)C2=O)COC1=O [Example 47, 8-[(2R)-2-fluoro-2-(4-methyl-1-oxo-1,3-dihydro-2-benzofuran-5-yl)ethyl]-2-(4-methyl-5-oxo-2,5-dihydrofuran-3-yl)-2,8-diazaspiro[4.5]decan-1-one] |
| 40 | CO[C@@H](CN1CCC2(CC1)CCN(C1=C(C)C(=O)OC1)C2=O)c1ccc2c(c1C)COC2=O [Example 49, 8-[(2R)-2-methoxy-2-(4-methyl-1-oxo-1,3-dihydro-2-benzofuran-5-yl)ethyl]-2-(4-methyl-5-oxo-2,5-dihydrofuran-3-yl)-1-oxo-2-aza-8-azoniaspiro[4.5]decane] |
| 30 | CC1=CC2(CCN(C[C@H](O)c3ccc4c(c3C)COC4=O)CC2)C(=O)N1C1=CC(=O)OC1 [Example 72] |
| 30 | CC1=C(N2CCC3(CCN(C[C@@H](O)c4ccc5c(c4C)COC5=O)CC3)C2=O)COC1=O [Example 8, 8-[(2S)-2-hydroxy-2-(4-methyl-1-oxo-1,3-dihydro-2-benzofuran-5-yl)ethyl]-2-(4-methyl-5-oxo-2,5-dihydrofuran-3-yl)-2,8-diazaspiro[4.5]decan-1-one] |
| 20 | CC1=C(N2CCC3(CCN(C[C@H](O)c4cc5c(cc4C)C(=O)OC5)CC3)C2=O)COC1=O [Example 38] |
| 10 | CC1=C(N2CCC3(CCN(C(C)(C)C(O)c4ccc5c(c4C)COC5=O)CC3)C2=O)COC1=O (single isomer, unassigned) [Example 85B] |
